# According to patent US8227510B2, “Combine use of pterostilbene and quercetin for the production of cancer treatment medicaments” (Universitat de Valencia, priority 2004, dated 2012):
# Marks after values point to notes of the source that are not given here.
# Test: Plasma levels after oral administration in mice
# Assay type: in vivo
# Conditions: 20 mg/kg oral
# Text: The mice (C57BL/6J, male, 6-8 weeks) were from Charles River Spain (Barcelona). The procedures and animal care were based on institutional standards and complied with national and international laws and policies (Directive 86/609, OJ L 358. 1 of the Council of the European Community, of 12 Dec. 1987) and the “Guide for the Care and Use of Laboratory Animals” of the National Institutes of Health (NIH, USA) (NIH Publication No. 85-23, 1985). All the animals were fed according to concentrated laboratory diets (Letica, Barcelona, Spain) allowing them free access to food and submitting them to a cycle of 12 hours of light/12 hours of darkness with ambient temperature of 22° C. The experiments were begun at 10.00 a.m. to minimize the effects of diurnal variations.
# For the pharmacokinetic studies and for the daily treatment, the mice were administered i.v. (via the jugular vein, where a permanent catheter had previously been fixed by surgical methods; i.v. administration was carried out slowly for 1 minute), and orally (via stomach tube), 20 mg/kg of t-PTER (dissolved in ethanol 0.5 ml/kg of animal weight) or QUER (dissolved in dimethylsulfoxide:saline, 1:0.5 0.15 ml/kg of weight). In general, the compositions based on a combination of PTER and QUER can contain, as excipients, those stated previously or any others that are pharmaceutically acceptable. The presentation of said compositions can be, non-limitatively, in the form of solids such as tablets, capsules, pellets, pills, etc. and liquid presentations such as drops, syrups, injectables, etc. Moreover, the active principles (PTER and QUER) of the composition can be in their uncombined forms or in the form of pharmaceutically acceptable salts, including esters. The t-PTER was synthesized in our laboratory following standardized reactions of Wittig and Heck (www.orgsyn.org), whereas the QUER was obtained from Sigma Chemical Co. (San Luis, Mo., USA). The ^3H-t-PTER (2.2 Ci/mmol), labeled in the ortho and para positions of the benzene rings, was prepared in our laboratory according to a method similar to that used for the deuteration of phenols (18). ^14C-QUER (50 mCi/mmol), labeled in position 4 of the carbon ring, was obtained from the NCI Radiochemical Carcinogen Repository of Chemsyn Laboratories (Kansas City, Mo., USA). The radioactivity was measured using a Varisette 2700 TR analyzer from Packard. Blood was collected by means of the catheter in 1-ml syringes that contained heparin sodium (0.05 ml of a 5% solution in […]). The plasma and the erythrocytes were separated as described previously (19).
# LC-MS/MS was carried out using a Quattro Micro triple quadrupole mass spectrometer (Micromass, Manchester, UK) equipped with an LC-10Advp pump, an SLC-10Avp control system and an SIL-10Advp autoinjector from Shimadzu. The samples were analyzed by reverse-phase high-performance liquid chromatography using a Prodigy ODS column (100×2 mm) from Phenomenex (Torrance, Calif., USA), with a particle size of 3 μm. In all cases, 40 μl was injected into the column. Column temperature was maintained at 25° C. The following gradient system was used, pumped through the column at 0.2 ml/minute (min/% A/% B/% C) (A, methanol; B, 10% acetonitrile and 90% ammonium formate 10 mM pH 3.75; C, ammonium formate 10 mM pH 3.75): 0/5/5/90, 10/5/5/90, 20/5/90/5, 30/100/0/0, 40/5/5/90. The negative ion tandem mass spectra obtained by electrospray were recorded with the electrospray capillary fixed at […] and at a temperature of the source block of 120° C. Nitrogen was used as nebulizer gas and drying gas, with flows of 300 and 30 l/h, respectively. Argon at 1.5×10^−3 mbar was used as the collision gas for collision-induced dissociation. A test was carried out based on LC-MS/MS with tracking of multiple reactions using the transitions m/z 255-240 for PTER and […] for QUER, which in both cases represent favorable fragmentation routes for these deprotonated molecules. […]
structure (smiles),measurement,setting,value
"COc1cc(/C=C/c2ccc(O)cc2)cc(OC)c1 [PTER, pterostilbene]",time of peak of plasma levels,,60 min
same,Plasma level (total),5 minutes,2.9 ± 0.6 µM
same,"Plasma level, % free",5 minutes,67 ± 13 % free
same,Plasma level (total),10 minutes,6.6 ± 1.8 µM
same,"Plasma level, % free",10 minutes,50 ± 10 % free
same,Plasma level (total),30 minutes,11.1 ± 3.0 µM
same,"Plasma level, % free",30 minutes,35 ± 5 % free
same,Plasma level (total),60 minutes,18.2 ± 2.7 µM
same,"Plasma level, % free",60 minutes,17 ± 6 % free
same,Plasma level (total),120 minutes,13.3 ± 3.4 µM
same,"Plasma level, % free",120 minutes,15 ± 3 % free
same,Plasma level (total),240 minutes,10.6 ± 1.2 µM
same,"Plasma level, % free",240 minutes,16 ± 4 % free
same,Plasma level (total),480 minutes,7.1 ± 0.8 µM
same,"Plasma level, % free",480 minutes,14 ± 4 % free
same,Plasma level (total),720 minutes,1.6 ± 0.5 µM
same,"Plasma level, % free",720 minutes,12 ± 2 % free
same,free PTER as percentage of the total,between 30 and 240 minutes,15-35%
same,total concentration of PTER in plasma,between 30 and 240 minutes,> 10 µM
"O=c1c(O)c(-c2ccc(O)c(O)c2)oc2cc(O)cc(O)c12 [QUER, quercetin]",time of peak of plasma levels,,10 min
same,Plasma level (total),5 minutes,1.6 ± 0.3 µM
same,"Plasma level, % free",5 minutes,22 ± 6 % free
same,Plasma level (total),10 minutes,2.3 ± 0.7 µM
same,"Plasma level, % free",10 minutes,<0.5* % free
same,Plasma level (total),30 minutes,0.6 ± 0.2 µM
same,"Plasma level, % free",30 minutes,<0.5* % free
same,Plasma level (total),60 minutes,0.2 ± 0.1 µM
same,"Plasma level, % free",60 minutes,<0.5* % free
same,Plasma level (total),120 minutes,0.07 ± 0.01 µM
same,"Plasma level, % free",120 minutes,<0.5* % free
same,Plasma level (total),240 minutes,0.05 ± 0.02 µM
same,"Plasma level, % free",240 minutes,<0.5* % free
same,Plasma level (total),480 minutes,0.05 ± 0.02 µM
same,"Plasma level, % free",480 minutes,<0.5* % free
same,Plasma level (total),720 minutes,0.04 ± 0.01 µM
same,"Plasma level, % free",720 minutes,<0.5* % free
same,free QUER as percentage of the total,except for the first 5 minutes,0.5%
same,levels of total QUER in plasma,first 10 minutes,> 1 µM
